≈ marks a conversion by molar mass, not a printed value.
What was measured:
MRSA 15187 = test: MIC, agar incorporation method; format: cell-based, Staphylococcus aureus; conditions: MRSA 15187; agar incorporation
Source text: (§1) The compounds of the invention display antibacterial activity when tested by the agar incorporation method. The following minimum inhibitory concentrations (μg/ml) were obtained for representative compounds of the invention which are given below in the following tables.
(§2) • 1) S.aureus ATCC 25923—Staphylococus aureus ATCC 25923 • 2) MRSA 15187—Methicillin Resistant Staphylococcus aureus • 3) Ent. faecalis ATCC 29212—Enterococcus faecalis ATCC 29212 • 4) Ent. faecium 6A—Enterococcus faecium 6A Van®, Cipro® • 5) Strep. pne. ATCC 6303—Streptococcus pneumoniae ATCC 6303 • 6) Strep. pyog. ATCC 19615—Streptococcus pyogenes • 7) S. epidermidis—Staphylococcus epidermidis ATCC 12228
(§3) Briefly, the compounds were dissolved in DMSO and doubling dilution of the compounds were incorporated into Meuller Hilton agar before solidification. Inoculum was prepared by suspending 4 to 5 colonies into 5 ml of normal saline solution and adjusting the turbidity to 0.5 Macfarland turbidity standard tables (1.5×10^8 CFU/ml), after appropriate dilutions, 10^4 CFU/spot was transfered into the surface of dried plate and incubated for 18 hours (24 hours for MRSN studies). The concentration showing no growth of the inoculated culture was recorded as the MIC. Appropriate ATCC standard strains were simultaneously tested and result recorded only when the MIC's against standard antibiotics were within the acceptable range.

S. aureus 25923 = test: MIC, agar incorporation method; format: cell-based, Staphylococcus aureus; conditions: S. aureus 25923; agar incorporation
Source text: as §1, §2, §3

MRSA 33 = test: MIC, agar incorporation method; format: cell-based, Staphylococcus aureus; conditions: MRSA 33; agar incorporation
Procedure: as §1, §3

E. faecalis 29212 = test: MIC, agar incorporation method; format: cell-based, Enterococcus faecalis; conditions: E. faecalis 29212; agar incorporation
Source text: as §1, §2, §3

VRE 6A = test: MIC, agar incorporation method; format: cell-based, Enterococcus faecium; conditions: VRE 6A; agar incorporation
Source text: as §1, §2, §3

S. pyogenes 19615 = test: MIC, agar incorporation method; format: cell-based, Streptococcus pyogenes; conditions: S. pyogenes 19615; agar incorporation
Source text: as §1, §2, §3

S. pneum 6303 = test: MIC, agar incorporation method; format: cell-based, Streptococcus pneumoniae; conditions: S. pneum 6303; agar incorporation
Source text: as §1, §2, §3

S. pneum AB 34 = test: MIC, agar incorporation method; format: cell-based, Streptococcus pneumoniae; conditions: S. pneum AB 34; agar incorporation
Procedure: as §1, §3

MRSA 562 [1] = test: In vivo activity against MRSA 562 (ED50); design: species or system Staphylococcus aureus
MRSA 562 [2] = test: MIC, agar incorporation method; format: cell-based, Staphylococcus aureus; conditions: MRSA 562
Procedure: as §1, §3

G+ve = test: Summary of in vitro activity (MIC) against G+ve bacteria; format: cell-based; conditions: for MIC50 / MIC90: G+ve, Number 49; for Geometric Mean of in vitro activity (MIC): Gram +ve
Procedure: as §1, §3

S. aureus = test: Summary of in vitro activity (MIC) against S. aureus; format: cell-based, Staphylococcus aureus; conditions: S. aureus; for MIC50 / MIC90: Number 8
Procedure: as §1, §3

E. faecalis = test: Summary of in vitro activity (MIC) against E. faecalis; format: cell-based, Enterococcus faecalis; conditions: E. faecalis; for MIC50 / MIC90: Number 7
Procedure: as §1, §3

S. pneumoniae = test: Summary of in vitro activity (MIC) against S. pneumoniae; format: cell-based, Streptococcus pneumoniae; conditions: S. pneumoniae; for MIC50 / MIC90: Number 19
Procedure: as §1, §3

[3] = Changes in MIC under different conditions: Agar MIC; format: cell-based; conditions: strain not given
Procedure: as §1, §3

[4] = Changes in MIC under different conditions: Broth MIC; format: cell-based; conditions: strain not given

Row | Structure (SMILES) | MIC (MRSA 15187) [µg/mL] | MIC (S. aureus 25923) [µg/mL] | MIC (MRSA 33) [µg/mL] | MIC (E. faecalis 29212) [µg/mL] | MIC (VRE 6A) [µg/mL] | MIC (S. pyogenes 19615) [µg/mL] | MIC (S. pneum 6303) [µg/mL] | MIC (S. pneum AB 34) [µg/mL] | ED50 (mg/kg body weight) PO (MRSA 562 [1]) [mg/kg body weight] | MIC (MRSA 562 [2]; Table 5) [µg/mL] | MIC50 (G+ve) [µg/mL] | MIC90 (G+ve) [µg/mL] | Geometric Mean of in vitro activity (MIC) (G+ve) [µg/mL] | Geometric Mean of in vitro activity (MIC) (S. aureus) [µg/mL] | MIC50 (S. aureus) [µg/mL] | MIC90 (S. aureus) [µg/mL] | Geometric Mean of in vitro activity (MIC) (E. faecalis) [µg/mL] | MIC50 (E. faecalis) [µg/mL] | MIC90 (E. faecalis) [µg/mL] | Geometric Mean of in vitro activity (MIC) (S. pneumoniae) [µg/mL] | further results
1 | CC(=O)NC[C@H]1CN(c2ccc(N3CCN(C(=O)c4ccc(Br)o4)CC3)c(F)c2)C(=O)O1 [Compound No. 04] | 2 (≈ 3.93 µM) | 2 (≈ 3.93 µM) | 2 (≈ 3.93 µM) | 2 (≈ 3.93 µM) | 1 (≈ 1.96 µM) | 2 (≈ 3.93 µM) | 1 (≈ 1.96 µM) | 1 (≈ 1.96 µM) | >25 |  |  |  |  |  |  |  |  |  |  |  | 
2 | CC(=O)NC[C@H]1CN(c2ccc(N3CCN(C(=O)c4ccc([N+](=O)[O-])o4)CC3)c(F)c2)C(=O)O1 [Compound No. 06, (S)-N-[[3-Fluoro-4-[N-1[4-(5-nitro-2-furoyl)piperazinyl]phenyl]-2-oxo-5-oxazolidinyl]methyl]acetamide] | 0.5 (≈ 1.05 µM) | 1 (≈ 2.1 µM) | 0.5 (≈ 1.05 µM) | 1 (≈ 2.1 µM) | 1 (≈ 2.1 µM) | 2 (≈ 4.21 µM) | 2 (≈ 4.21 µM) | 2 (≈ 4.21 µM) | >25 | 1 (≈ 2.1 µM) | 1 (≈ 2.1 µM) | 2 (≈ 4.21 µM) | 0.79 | 0.74 | 1 (≈ 2.1 µM) | 1 (≈ 2.1 µM) | 0.92 | 1 (≈ 2.1 µM) | 1 (≈ 2.1 µM) | 1.27 | MIC50 (S. pneumoniae): 2 µg/mL (≈ 4.21 µM); MIC90 (S. pneumoniae): 2 µg/mL (≈ 4.21 µM)
3 | CC(=O)NC[C@H]1CN(c2ccc(N3CCN(C(=O)C(=O)c4cccs4)CC3)c(F)c2)C(=O)O1 [Compound No. 07, (S)-N[[3-[3-Fluoro-4-[N-1[4-{2-(2-thienyl)dicarbonyl}]-piperazinyl]phenyl]2-oxo-5-oxazolidinyl]methyl]acetamide] | 2 (≈ 4.21 µM) | 2 (≈ 4.21 µM) | 2 (≈ 4.21 µM) | 2 (≈ 4.21 µM) | 2 (≈ 4.21 µM) | 0.5 (≈ 1.05 µM) | 2 (≈ 4.21 µM) | 2 (≈ 4.21 µM) | >25 | 2 (≈ 4.21 µM) |  |  |  |  |  |  |  |  |  |  | MIC (MRSA 562 [2]; agar incorporation, Table 1): 2 µg/mL (≈ 4.21 µM)
4 | CC(=O)NC[C@H]1CN(c2ccc(N3CCN(Cc4ccc([N+](=O)[O-])o4)CC3)c(F)c2)C(=O)O1 [Compound No. 15, (S)-N-[[3-[3-fluoro-4-[N-1-[4-{2-furyl-(5-nitro)methyl}]piperazinyl]phenyl]-2-oxo-5-oxazolidinyl]methyl]acetamide] | 2 (≈ 4.33 µM) | 2 (≈ 4.33 µM) | 2 (≈ 4.33 µM) | 2 (≈ 4.33 µM) | 1 (≈ 2.17 µM) | 1 (≈ 2.17 µM) | 1 (≈ 2.17 µM) | 2 (≈ 4.33 µM) | 4.33 | 2 (≈ 4.33 µM) | 1 (≈ 2.17 µM) | 2 (≈ 4.33 µM) | 1.08 | 1.63 | 2 (≈ 4.33 µM) | 2 (≈ 4.33 µM) | 1.6 | 2 (≈ 4.33 µM) | 2 (≈ 4.33 µM) | 1.04 | MIC (MRSA 562 [2]; agar incorporation, Table 1): 2 µg/mL (≈ 4.33 µM); MIC50 (S. pneumoniae): 2 µg/mL (≈ 4.33 µM); MIC90 (S. pneumoniae): 4 µg/mL (≈ 8.67 µM)
5 | CC(=O)NC[C@H]1CN(c2ccc(N3CCN(Cc4ccc([N+](=O)[O-])o4)CC3)c(F)c2)C(=O)O1.Cl [Compound No. 16] | 4 | 2 | 4 | 2 | 4 | 0.5 | 1 | 1 |  |  |  |  |  |  |  |  |  |  |  |  | Agar MIC [3]: 2 µg/mL; Broth MIC +50% Sheep serum ([4]; +50% Sheep serum): 2 µg/mL; Broth MIC Normal MH broth ([4]; Normal MH broth): 2 µg/mL
6 | CC(=O)NC[C@H]1CN(c2ccc(N3CCC(N(C)Cc4ccc([N+](=O)[O-])o4)CC3)c(F)c2)C(=O)O1 [Compound No. 50, (S)-N-[[3-[4-[4-(N-methyl-N-2-furyl(5-nitro)methyl)-aminopiperidine-1-yl]-3-fluorophenyl]-2oxo-oxazolidin-5-yl]methyl]acetamide] | 1 (≈ 2.04 µM) | 1 (≈ 2.04 µM) | 1 (≈ 2.04 µM) | 0.5 (≈ 1.02 µM) | 0.25 (≈ 0.511 µM) | 0.125 (≈ 0.255 µM) | 0.5 (≈ 1.02 µM) | 2 (≈ 4.09 µM) |  | 0.5 (≈ 1.02 µM) | 1 (≈ 2.04 µM) | 2 (≈ 4.09 µM) | 0.72 | 1 | 1 (≈ 2.04 µM) | 2 (≈ 4.09 µM) | 0.42 | 0.5 (≈ 1.02 µM) | 1 (≈ 2.04 µM) | 1.41 | MIC (MRSA 562 [2]; agar incorporation, Table 1): 0.5 µg/mL (≈ 1.02 µM); MIC50 (S. pneumoniae): 1 µg/mL (≈ 2.04 µM); MIC90 (S. pneumoniae): 2 µg/mL (≈ 4.09 µM)
7 | CC(=O)NC[C@H]1CN(c2ccc(N3CCN(Cc4ccc(NC=O)o4)CC3)c(F)c2)C(=O)O1 [Compound No. 67] |  |  |  |  |  |  |  |  | >25 | 2 (≈ 4.35 µM) |  |  |  |  |  |  |  |  |  |  | 
8 | CC(=O)NC[C@H]1CN(c2ccc(N3CC4C(C3)C4N(C)C(=O)Cc3cccs3)c(F)c2)C(=O)O1 (stereo partly drawn) [Compound No. 71, (S)-N-[[3-[3-Fluoro[4-[3-(1α, 5α, 6α)-6-[N-(2-thiopheneacetyl)-N-methyl]amino]-3-azabicyclo-[3.1.0]hexane]phenyl]-2-oxo-5-oxazolidinyl]methyl]acetamide] | 4 (≈ 8.22 µM) | 4 (≈ 8.22 µM) | 4 (≈ 8.22 µM) | 4 (≈ 8.22 µM) | 4 (≈ 8.22 µM) | 2 (≈ 4.11 µM) | 4 (≈ 8.22 µM) | 4 (≈ 8.22 µM) | >25 | 4 (≈ 8.22 µM) |  |  |  |  |  |  |  |  |  |  | 

Source: patent US6956040B2, “Oxazolidinone piperazinyl derivatives as potential antimicrobials” (Ranbaxy Laboratories Limited, priority 2001, dated 2005)
